Experimental data published in patent US20080004290A1, “Anti-Cancer Agents” (THE UNIVERSITY OF QUEENSLAND, priority 2003, published 2008).
Like-named read-outs stand apart in the source and are kept apart here.

Key:
[1] = system: NFF, neonatal foreskin fibroblasts; experiment: Cell survival assay (clonogenic survival, SRB), normal cells; assay type: cell-based, human; settings: SRB
Description: (§1) The cytotoxicities of the compounds of the invention were determined by clonogenic survival of human cancer cells (MM96L, melanoma) and human normal cells (NFF, neonatal foreskin fibroblasts). Cells were incubated with the compounds at various concentrations of compound (0.01-10 μg/mL) for 24 hours, washed, and then grown for a further four days in the absence of hydroxamic acid before determining cell survival by cell count. The final readout involved staining with sulforhodamine B (SRB), a cost-effective method amenable to automation and high throughput analysis. At the technical level, “cell sensitivity” is often inferred from short term (1-2 day) observations such as apoptosis, which may not be a satisfactory model of clonogenic survival.
(§2) Cell Lines and Culture Medium. All cell lines used in this study have been described previously (Parsons et al., 1986; Todaro et al., 1980; Glenn et al., 2004). All cell lines were cultured in 10% heat-inactivated foetal calf serum (CSL, Australia) in RPMI 1640 medium supplemented with 100 U/mL penicillin, 100 μg/mL streptomycin, and 3 mM HEPES at 5% CO2, 99% humidity at 37° C. Primary human fibroblasts were obtained from neonatal foreskins and cultured in the above medium. Routine mycoplasma tests were performed using Hoechst stain^i and were always negative.
(§3) Cell Survival Assay. Cells were plated into 96-well microtitre plates at 5×10^3 cells/well, and allowed to adhere overnight. Test compounds were added to culture medium at the indicated concentrations, and plates incubated in the above conditions for 24 hours. Following this incubation period, compounds and media were removed, and replaced with fresh culture medium. Cells were then grown for a further 72 hours before assay using sulforhodamine B (SRB; Sigma, St. Louis, Mo.) as previously described. Briefly, the culture medium was removed from the 96-well microtitre plates and the plates washed twice with phosphate buffered saline (PBS), before the cells were fixed with methylated spirits for 15 minutes. The plates were then rinsed with tap water and the fixed cells stained with 50 μL/well of SRB solution (0.4% sulforhodamine B (w/v) in 1% (v/v) acetic acid) over a period of 1 hour. The SRB solution was then removed from the wells and the plates rapidly washed two times with 1% (v/v) acetic acid. Protein bound dye was then solubilised with the addition of 100 μL of 10 mM unbuffered Tris, and incubated for 15 min at 25° C. Plates were then read at 564 nm on a VERSA max tunable microplate reader (Molecular Devices, Sunnyvale, Calif.).

MM96L melanoma cells = experiment: Cell survival assay (clonogenic survival, SRB); assay type: cell-based, human; settings: for SI (Selectivity Index = IC50 (NFF)/IC50 (MM96L)): NFF vs MM96L
Description: as §1, §2, §3

[2] = Homo sapiens, Fibroblast, NFF normal fibroblasts, 24 h with compound, further 72 h growth, read-out: IC50 (uM) NFF
[3] = Homo sapiens, MM96L, MM96L melanoma, 24 h with compound, further 72 h growth, SRB, read-out: IC50 (uM) MM96L
[4] = Homo sapiens, Fibroblast, 24 h, Table 7, 24 hours with compound, further growth, read-out: IC50 (μM) NFF
[5] = Homo sapiens, MM96L, 24 h, Table 7, 24 hours with compound, further growth, SRB, read-out: IC50 (μM) MM96L
[6] = Table 7, IC50 (NFF)/IC50 (MM96L)
[7] = Homo sapiens, Fibroblast, 24 h, Table 6, 24 hours with compound, further growth, read-out: IC50 (μM) NFF
[8] = Homo sapiens, MM96L, 24 h, Table 6, 24 hours with compound, further growth, SRB, read-out: IC50 (μM) MM96L
[9] = Table 6, IC50 (NFF)/IC50 (MM96L)
[10] = Table 5, 24 hours with compound, further growth, read-out: IC50 NFF
[11] = Table 5, 24 hours with compound, further growth, SRB, read-out: IC50 MM96L
[12] = Table 5, Selectivity Index = IC50 (NFF)/IC50 (MM96L)
[13] = Table 8, 24 hours with compound, further growth, read-out: IC50 (μM) NFF
[14] = Table 8, 24 hours with compound, further growth, SRB, read-out: IC50 (μM) MM96
[15] = Table 8, IC50 (NFF)/IC50 (MM96L)
[16] = Table 6, 24 hours with compound, further growth, read-out: IC50 (μM) NFF
[17] = Table 6, 24 hours with compound, further growth, SRB, read-out: IC50 (μM) MM96L
[18] = NFF normal fibroblasts, 24 h with compound, further 72 h growth, read-out: IC50 (uM) NFF
[19] = MM96L melanoma, 24 h with compound, further 72 h growth, SRB, read-out: IC50 (uM) MM96L
[20] = Homo sapiens, MM96L, most preferred compounds, exemplary examples, read-out: potency of IC50 against the MM96 melanoma cells

O=C(CCCCC[C@H](NC(=O)Cc1ccc(-c2ccccc2)cc1)C(=O)NCc1ccccc1)NO [Example 140]
IC50 [1, 2]: 5.13 µM | IC50 (MM96L melanoma cells; [3]): 2.36 µM | SI (Selectivity Index = IC50 (NFF)/IC50 (MM96L)) (MM96L melanoma cells): 2.2

Cc1ccnc(NC(=O)[C@H](CSCCCC(=O)NO)NC(=O)/C=C/c2ccccc2)c1 [Example 99]
IC50 [1, 4]: 4 ± 0.6 µM | IC50 (MM96L melanoma cells; [5]): 0.6 ± 0.2 µM | Selectivity (MM96L melanoma cells; [6]): 6.5

CN(C)c1ccc(C(=O)N[C@@H](CSCCCC(=O)NO)C(=O)Nc2ccc3cc4ccccc4cc3c2)cc1 [Example 72]
IC50 [1, 7]: 1.14 ± 0.06 µM | IC50 (MM96L melanoma cells; [8]): 0.55 ± 0.07 µM | Selectivity (MM96L melanoma cells; [9]): 2.1

CN(C)c1ccc(C(=O)N[C@@H](CSCCCC(=O)NO)C(=O)NCc2cccc3ccccc23)cc1 [Example 75]
IC50 [1, 7]: 0.42 ± 0.05 µM | IC50 (MM96L melanoma cells; [8]): 0.2 ± 0.02 µM | Selectivity (MM96L melanoma cells; [9]): 2.1

O=C(CCCSC[C@H](NC(=O)c1cccnc1)C(=O)NCc1ccccc1)NO [Example 36]
IC50 [1, 10]: > 100 µM | IC50 (MM96L melanoma cells; [11]): 12.8 ± 0.8 µM | Selectivity (MM96L melanoma cells; [12]): >8

O=C(/C=C/c1c[nH]c2ccccc12)N[C@@H](CCCCCC(=O)NO)C(=O)NCc1ccccc1 [Example 167]
IC50 [1, 2]: 10.4 µM | IC50 (MM96L melanoma cells; [3]): 3.24 µM | SI (Selectivity Index = IC50 (NFF)/IC50 (MM96L)) (MM96L melanoma cells): 3.2

CN(C)c1ccc(C(=O)N[C@@H](CSCCCC(=O)NO)C(=O)NCc2ccc(C(=O)NCCCCCCO)cc2)cc1 [Example 105]
IC50 [1, 13]: 17 µM | IC50 (MM96L melanoma cells; [14]): 4.26 µM | Selectivity (MM96L melanoma cells; [15]): 4.0

CN(C)c1ccc(C(=O)N[C@@H](CSCCCC(=O)NO)C(=O)NCc2ccc(C(=O)NCCc3ccc(O)cc3)cc2)cc1 [Example 110]
IC50 [1, 13]: 16.1 µM | IC50 (MM96L melanoma cells; [14]): 2.98 µM | Selectivity (MM96L melanoma cells; [15]): 5.4

O=C(CCCSC[C@H](NC(=O)Cc1cccc2ccccc12)C(=O)NCc1ccccc1)NO [Example 45]
IC50 [1, 10]: 15 ± 1 µM | IC50 (MM96L melanoma cells; [11]): 4.1 ± 0.7 µM | Selectivity (MM96L melanoma cells; [12]): 3.7

CN(C)c1ccc(C(=O)N[C@@H](CSCCCC(=O)NO)C(=O)NCCc2ccc(Br)cc2)cc1 [Example 86]
IC50 [1, 16]: 2.6 ± 0.3 µM | IC50 (MM96L melanoma cells; [17]): 1 ± 0.1 µM | Selectivity (MM96L melanoma cells; [9]): 2.6

CN(C)c1ccc(C(=O)N[C@@H](CSCCCC(=O)NO)C(=O)Nc2cccc3ccccc23)cc1 [Example 65]
IC50 [1, 7]: 5.9 ± 0.7 µM | IC50 (MM96L melanoma cells; [8]): 1.3 ± 0.1 µM | Selectivity (MM96L melanoma cells; [9]): 4.5

O=C(CCCSC[C@H](NC(=O)CCc1ccccc1)C(=O)NCc1ccccc1)NO [Example 46]
IC50 [1, 10]: 21 ± 3 µM | IC50 (MM96L melanoma cells; [11]): 7.4 ± 0.5 µM | Selectivity (MM96L melanoma cells; [12]): 2.9

O=C(CCCSC[C@H](NC(=O)Cc1ccc(-c2ccccc2)cc1)C(=O)NCc1ccccc1)NO [Example 42]
IC50 [1, 10]: 21 ± 2 µM | IC50 (MM96L melanoma cells; [11]): 12 ± 3 µM | Selectivity (MM96L melanoma cells; [12]): 1.8

CN(C)c1ccc(C(=O)N[C@@H](CSCCCC(=O)NO)C(=O)NCCc2ccccc2Br)cc1 [Example 84]
IC50 [1, 16]: 3.3 ± 0.3 µM | IC50 (MM96L melanoma cells; [17]): 0.7 ± 0.2 µM | Selectivity (MM96L melanoma cells; [9]): 4.7

CN(C)c1ccc(C(=O)N[C@@H](CCCCCC(=O)NO)C(=O)NCc2ccccc2)cc1 [Example 122]
IC50 [1, 18]: 12 ± 2 µM | IC50 (MM96L melanoma cells; [19]): 1.6 ± 0.3 µM | SI (Selectivity Index = IC50 (NFF)/IC50 (MM96L)) (MM96L melanoma cells): 7.8

O=C(/C=C/c1ccccc1)N[C@@H](CSCCCC(=O)NO)C(=O)NCc1ccncc1 [Example 100]
IC50 [1, 4]: 1.6 ± 0.2 µM | IC50 (MM96L melanoma cells; [5]): 0.34 ± 0.02 µM | IC50 (MM96L melanoma cells; [20]): ≤ 0.5 µM | Selectivity (MM96L melanoma cells; [6]): 4.8

CN(C)c1ccc(NC(=O)[C@H](CCCCCC(=O)NO)NC(=O)OCc2ccccc2)cc1 [Example 151]
IC50 [1, 2]: 0.65 µM | IC50 (MM96L melanoma cells; [3]): 0.61 µM | SI (Selectivity Index = IC50 (NFF)/IC50 (MM96L)) (MM96L melanoma cells): 1.1

O=C(/C=C/c1ccccc1)N[C@@H](CCCCCC(=O)NO)C(=O)NCc1ccccc1 [Example 137]
IC50 [1, 18]: 4.01 µM | IC50 (MM96L melanoma cells; [20]): ≤ 0.5 µM | IC50 (MM96L melanoma cells; [19]): 0.46 µM | SI (Selectivity Index = IC50 (NFF)/IC50 (MM96L)) (MM96L melanoma cells): 8.7

O=C(CCCCC[C@H](NC(=O)OCC1c2ccccc2-c2ccccc21)C(=O)NCc1ccccc1)NO [Example 142]
IC50 [1, 2]: 5.37 µM | IC50 (MM96L melanoma cells; [3]): 3.2 µM | SI (Selectivity Index = IC50 (NFF)/IC50 (MM96L)) (MM96L melanoma cells): 1.7
